Our source for the IC50 values is patent US10722501B2 (BAYER AKTIENGESELLSCHAFT, priority 2016, dated 2020).

As a reminder, the IC50 is the concentration that inhibits the measured activity by half.

This assay concerns the target T1, recombinant full-length human prolyl endopeptidase (PREP) (Homo sapiens, UniProt P48147).
T1 construct: To recombinant full-length human prolyl endopeptidase (PREP, R&D-Systems, 4308-SE); purchased R&D-Systems 4308-SE
T1 sequence (P48147 1-710): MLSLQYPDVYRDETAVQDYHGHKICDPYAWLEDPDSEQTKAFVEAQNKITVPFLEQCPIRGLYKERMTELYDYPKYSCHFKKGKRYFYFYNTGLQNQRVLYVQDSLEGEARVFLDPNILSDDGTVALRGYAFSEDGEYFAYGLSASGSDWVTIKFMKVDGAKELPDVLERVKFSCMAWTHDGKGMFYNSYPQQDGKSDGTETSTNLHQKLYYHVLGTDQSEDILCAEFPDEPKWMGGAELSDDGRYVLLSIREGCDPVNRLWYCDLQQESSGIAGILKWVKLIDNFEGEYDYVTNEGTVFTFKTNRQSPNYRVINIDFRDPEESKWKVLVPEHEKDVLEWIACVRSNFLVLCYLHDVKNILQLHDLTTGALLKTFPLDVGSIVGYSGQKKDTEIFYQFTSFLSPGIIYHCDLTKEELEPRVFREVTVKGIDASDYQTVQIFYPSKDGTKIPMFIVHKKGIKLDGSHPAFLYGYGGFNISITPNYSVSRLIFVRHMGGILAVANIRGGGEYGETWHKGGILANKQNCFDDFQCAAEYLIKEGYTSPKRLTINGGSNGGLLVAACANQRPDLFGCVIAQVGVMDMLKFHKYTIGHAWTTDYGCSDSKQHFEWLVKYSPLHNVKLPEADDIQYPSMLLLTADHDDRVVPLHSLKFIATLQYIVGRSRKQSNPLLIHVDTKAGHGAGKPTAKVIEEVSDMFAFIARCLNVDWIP
Description: Biochemical human prolyl endopeptidase (PREP) assay with fluorescently labelled substrate. The conditions noted are these: substrate Z-Gly-Pro-AMC 50 μM, 32° C., 60 min; some as mean values from multiple independent determinations. The essentials: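 0.4 nM (final, example) recombinant PREP in pH 7.5 Tris buffer with EDTA, GSH, BSA and Brij-35; compounds at 1 nM to 30 μM. Reaction started with 50 μM Z-Gly-Pro-AMC and followed by fluorescence (ex 360/em 465 nm) at 32° C for 60 min. IC50 interpolated from percent activity based on initial slopes.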
With `O=C([C@@H]1CCCc2nn(Cc3ccnc(C(F)(F)F)c3)c(=O)n21)N1CCCC1` [Example 74, (5S)-5-(Pyrrolidin-1-ylcarbonyl)-2-{[2-(trifluoromethyl)pyridin-4-yl]methyl}-5,6,7,8-tetrahydro[1,2,4]triazolo[4,3-a]pyridin-3(2H)-one], the IC50 is 4.75 nM.

As to `O=C([C@@H]1CCCc2nn(Cc3ccnc(C(F)(F)F)c3F)c(=O)n21)N1CCCC1` [Example 75, (5S)-2-{[3-Fluoro-2-(trifluoromethyl)pyridin-4-yl]methyl}-5-(pyrrolidin-1-ylcarbonyl)-5,6,7,8-tetrahydro[1,2,4]triazolo[4,3-a]pyridin-3(2H)-one], the IC50 is 1.1 nM.

Consider `O=C([C@@H]1CCCc2nn(Cc3cc(C(F)(F)F)nc4ccccc34)c(=O)n21)N1CCCC1` [Example 76, (5S)-5-(Pyrrolidin-1-ylcarbonyl)-2-{[2-(trifluoromethyl)quinolin-4-yl]methyl}-5,6,7,8-tetrahydro[1,2,4]triazolo[4,3-a]pyridin-3(2H)-one], for which the IC50 worked out at 0.38 nM.

On to `O=C([C@@H]1CCCc2nn(Cc3cc(C(F)(F)F)ccn3)c(=O)n21)N1CCCC1` [Example 93, (5S)-5-(Pyrrolidin-1-ylcarbonyl)-2-{[4-(trifluoromethyl)pyridin-2-yl]methyl}-5,6,7,8-tetrahydro[1,2,4]triazolo[4,3-a]pyridin-3(2H)-one], for which the IC50 came to 6 nM.

Regarding `O=C([C@@H]1CCCc2nn(Cc3ccnc(C(F)(F)F)n3)c(=O)n21)N1CCCC1` [Example 94, (5S)-5-(Pyrrolidin-1-ylcarbonyl)-2-{[2-(trifluoromethyl)pyrimidin-4-yl]methyl}-5,6,7,8-tetrahydro[1,2,4]triazolo[4,3-a]pyridin-3(2H)-one], the IC50 turned out to be 57 nM.

Take `O=C([C@@H]1CCCc2nn(Cc3ccc(F)c(Cl)c3)c(=O)n21)N1CC[C@H](O)C1` [Example 97, (5S)-2-(3-Chloro-4-fluorobenzyl)-5-{[(3S)-3-hydroxypyrrolidin-1-yl]carbonyl}-5,6,7,8-tetrahydro[1,2,4]triazolo[4,3-a]pyridin-3(2H)-one]: the IC50 turned out to be 6.5 nM.

On to `O=C([C@@H]1CCCc2nn(Cc3cccc(C(F)(F)F)c3)c(=O)n21)N1CC[C@H](O)C1` [Example 99, (5S)-5-{[(3S)-3-Hydroxypyrrolidin-1-yl]carbonyl}-2-[3-(trifluoromethyl)benzyl]-5,6,7,8-tetrahydro[1,2,4]triazolo[4,3-a]pyridin-3(2H)-one], for which the IC50 stood at 12.7 nM.

On to `Cc1cc(C)c(Cn2nc3n(c2=O)[C@H](C(=O)N2CCCC2)CCC3)cc1C` [Example 102, (5S)-5-(Pyrrolidin-1-ylcarbonyl)-2-(2,4,5-trimethylbenzyl)-5,6,7,8-tetrahydro[1,2,4]triazolo[4,3-a]pyridin-3(2H)-one], for which the IC50 was 0.25 nM.

In the case of `O=C([C@@H]1CCCc2nn(Cc3ncc(C(F)(F)F)cc3Cl)c(=O)n21)N1CCCC1` [Example 106, (5S)-2-{[3-Chloro-5-(trifluoromethyl)pyridin-2-yl]methyl}-5-(pyrrolidin-1-ylcarbonyl)-5,6,7,8-tetrahydro[1,2,4]triazolo[4,3-a]pyridin-3(2H)-one], the IC50 was found to be 1.7 nM.

For the compound `Cc1ccc(Cn2nc3n(c2=O)[C@H](C(=O)N2CCSC2)CCC3)cc1` [Example 108, (5S)-2-(4-Methylbenzyl)-5-(1,3-thiazolidin-3-ylcarbonyl)-5,6,7,8-tetrahydro[1,2,4]triazolo[4,3-a]pyridin-3(2H)-one], the IC50 was found to be 0.15 nM.

Turning to `Cc1ccc(Cn2nc3n(c2=O)[C@H](C(=O)N2CCC[C@H]2C#N)CCC3)cc1` [Example 109, (2S)-1-{[(5S)-2-(4-Methylbenzyl)-3-oxo-2,3,5,6,7,8-hexahydro[1,2,4]triazolo[4,3-a]pyridin-5-yl]carbonyl}pyrrolidine-2-carbonitrile], the IC50 worked out at 0.21 nM.

Turning to `Cc1ccc(Cn2nc3n(c2=O)[C@H](C(=O)N2CC[C@H](F)C2)CCC3)cc1` [Example 110, (5S)-5-{[(3S)-3-Fluoropyrrolidin-1-yl]carbonyl}-2-(4-methylbenzyl)-5,6,7,8-tetrahydro[1,2,4]triazolo[4,3-a]pyridin-3(2H)-one], the IC50 was 0.32 nM.

On to `Cc1ccc(Cn2nc3n(c2=O)[C@H](C(=O)N2CC[C@@H](F)C2)CCC3)cc1` [Example 111, (5S)-5-{[(3R)-3-Fluoropyrrolidin-1-yl]carbonyl}-2-(4-methylbenzyl)-5,6,7,8-tetrahydro[1,2,4]triazolo[4,3-a]pyridin-3(2H)-one], for which the IC50 came to 0.41 nM.

With `Cc1ccc(Cn2nc3n(c2=O)[C@H](C(=O)N2CC(F)C2)CCC3)cc1` [Example 113, (5S)-5-[(3-Fluoroazetidin-1-yl)carbonyl]-2-(4-methylbenzyl)-5,6,7,8-tetrahydro[1,2,4]triazolo[4,3-a]pyridin-3(2H)-one], the IC50 turned out to be 0.42 nM.

Turning to `Cc1ccc(Cn2nc3n(c2=O)[C@H](C(=O)N2CC[C@@H](O)C2)CCC3)cc1` [Example 122, (5S)-5-{[(3R)-3-Hydroxypyrrolidin-1-yl]carbonyl}-2-(4-methylbenzyl)-5,6,7,8-tetrahydro[1,2,4]triazolo[4,3-a]pyridin-3(2H)-one], the IC50 stood at 10.2 nM.

For the compound `Cc1ccc(Cn2nc3n(c2=O)[C@H](C(=O)N2CCC[C@@H]2C)CCC3)cc1` [Example 127, 2-(4-Methylbenzyl)-(5S)-{[(2S)-2-methylpyrrolidin-1-yl]carbonyl}-5,6,7,8-tetrahydro[1,2,4]triazolo[4,3-a]pyridin-3(2H)-one], the IC50 worked out at 43.5 nM.

As for `CO[C@H]1CCN(C(=O)[C@@H]2CCCc3nn(Cc4ccc(C)cc4)c(=O)n32)C1` [Example 130, (5S)-{[(3S)-3-Methoxypyrrolidin-1-yl]carbonyl}-2-(4-methylbenzyl)-5,6,7,8-tetrahydro[1,2,4]triazolo[4,3-a]pyridin-3(2H)-one], the IC50 was found to be 50.5 nM.

With `Cc1ccc(Cn2nc3n(c2=O)[C@H](C(=O)N2CCC[C@H]2C)CCC3)cc1` [Example 132, (5S)-2-(4-Methylbenzyl)-{[(2R)-2-methylpyrrolidin-1-yl]carbonyl}-5,6,7,8-tetrahydro[1,2,4]triazolo[4,3-a]pyridin-3(2H)-one], the IC50 was found to be 141 nM.

With `Cc1ccc(Cn2nc3n(c2=O)[C@H](C(=O)N2C[C@H](F)[C@@H](F)C2)CCC3)cc1` [Example 140, (5S)-5-{[(3S,4S)-3,4-Difluoropyrrolidin-1-yl]carbonyl}-2-(4-methylbenzyl)-5,6,7,8-tetrahydro[1,2,4]triazolo[4,3-a]pyridin-3(2H)-one], the half-inhibitory concentration (IC50) turned out to be 16 nM.

As to `Cc1ccc(Cn2nc3n(c2=O)[C@H](C(=O)N2CC[C@H](C(F)F)C2)CCC3)cc1` [Example 143, (5S)-5-{[(3S)-3-(Difluoromethyl)pyrrolidin-1-yl]carbonyl}-2-(4-methylbenzyl)-5,6,7,8-tetrahydro[1,2,4]triazolo[4,3-a]pyridin-3(2H)-one], the IC50 turned out to be 13.1 nM.

For the compound `Cc1ccc(Cn2nc3n(c2=O)[C@H](C(=O)N2CC(F)(F)C(F)(F)C2)CCC3)cc1` [Example 145, (5S)-2-(4-Methylbenzyl)-5-[(3,3,4,4-tetrafluoropyrrolidin-1-yl)carbonyl]-5,6,7,8-tetrahydro[1,2,4]triazolo[4,3-a]pyridin-3(2H)-one], the IC50 came out at 12.7 nM.

As to `Cc1ccc(Cn2nc3n(c2=O)[C@H](C(=O)N2CC(CF)C2)CCC3)cc1` [Example 146, (5S)-5-{[3-(Fluoromethyl)azetidin-1-yl]carbonyl}-2-(4-methylbenzyl)-5,6,7,8-tetrahydro[1,2,4]triazolo[4,3-a]pyridin-3(2H)-one], the IC50 was determined as 0.93 nM.

For the compound `Cc1ccc(Cn2nc3n(c2=O)[C@H](C(=O)N2CC[C@@H]2C)CCC3)cc1` [Example 148, (5S)-5-{[(2S)-2-Methylazetidin-1-yl]carbonyl}-2-(4-methylbenzyl)-5,6,7,8-tetrahydro[1,2,4]triazolo[4,3-a]pyridin-3(2H)-one], the IC50 stood at 21.3 nM.

Regarding `Cc1ccc(Cn2nc3n(c2=O)[C@H](C(=O)N2CC(C(F)F)C2)CCC3)cc1` [Example 149, (5S)-5-{[3-(Difluoromethyl)azetidin-1-yl]carbonyl}-2-(4-methylbenzyl)-5,6,7,8-tetrahydro[1,2,4]triazolo[4,3-a]pyridin-3(2H)-one], the IC50 came to 2.5 nM.

With `Cc1ccc(Cn2nc3n(c2=O)[C@H](C(=O)N2C[C@@H](F)[C@@H](F)C2)CCC3)cc1` [Example 150, (5S)-5-{[cis-3,4-Difluoropyrrolidin-1-yl]carbonyl}-2-(4-methylbenzyl)-5,6,7,8-tetrahydro[1,2,4]triazolo[4,3-a]pyridin-3(2H)-one], the IC50 was found to be 0.58 nM.

Take `Cc1ccc(Cn2nc3n(c2=O)[C@H](C(=O)N2CCCC2)CC3)cc1` [Example 157, (5S)-2-(4-Methylbenzyl)-5-(pyrrolidin-1-ylcarbonyl)-2,5,6,7-tetrahydro-3H-pyrrolo[2,1-c][1,2,4]triazol-3-one]: the IC50 was found to be 1.3 nM.
